Measured values: US7390896B2, “Cyclic malonamides as inhibitors of Aβ protein production” (Bristol-Myers Squibb Pharma Corporation, priority 2000, dated 2008)

Structure (SMILES) | melting point
CN1C(=O)[C@@H](NC(=O)C2(NC(=O)CCC3CCCC3)CCCCC2)N=C(c2ccccc2)c2ccccc21 | 88 to 103 °C
CC(C)CCC(=O)NC1(C(=O)NC2N=C(C(C)(C)C)c3ccccc3N(C)C2=O)CCCC1 (stereo not shown) [Example 61, N-((N-[5-(tert-Butyl)-1-methyl-2-oxo(3H-benzo[f]1,4-diazepin-3-yl)]carbamoyl)cyclopentyl)-4-methylpentanamide] | 175 to 178 °C
CCCCN1C(=O)C(NC(=O)C2(NC(=O)CCC(C)C)CCCC2)N=C(C(C)(C)C)c2ccccc21 (stereo not shown) [Example 62, N-({N-[5-(tert-Butyl)-1-butyl-2-oxo(3H-benzo[f]1,4-diazepin-3-yl)]carbamoyl}cyclopentyl)-4-methylpentanamide] | 175 to 177 °C

The next lines start with the values.

melting point | Structure (SMILES)
126 to 129 °C | CN1C(=O)[C@@H](NC(=O)C2(NC(=O)Cc3cc(F)cc(F)c3)CCCCC2)N=C(c2ccccc2)c2ccccc21
112 to 117 °C | CN1C(=O)[C@@H](NC(=O)C2(NC(=O)Cc3cc(F)cc(F)c3)CCCC2)N=C(c2ccccc2)c2ccccc21
212 to 214 °C | CN1C(=O)[C@@H](NC(=O)C2(NC(=O)Cc3cc(F)cc(F)c3)CC2)N=C(c2ccccc2)c2ccccc21
63 to 67 °C | CCCCC1=NC(NC(=O)C2(NC(=O)CCC(C)C)CCCC2)C(=O)N(Cc2ccccn2)c2ccccc21 (stereo not shown) [Example 63, N-({N-[5-Butyl-2-oxo-1-(2-pyridylmethyl)(3H-benzo[f]1,4-diazepin-3-yl)]carbamoyl}cyclopentyl)-4-methylpentanamide]
